{"source": "paper PMC4667193", "about": "(Scientific Reports, 2015)", "key": {"[1]": {"biological_target": "T1, Rat M1 mAChR (Rattus norvegicus, UniProt P08482)", "T1 construct": "host or cells: CHO (CHO-K1) cells", "T1 sequence (P08482 1-460)": "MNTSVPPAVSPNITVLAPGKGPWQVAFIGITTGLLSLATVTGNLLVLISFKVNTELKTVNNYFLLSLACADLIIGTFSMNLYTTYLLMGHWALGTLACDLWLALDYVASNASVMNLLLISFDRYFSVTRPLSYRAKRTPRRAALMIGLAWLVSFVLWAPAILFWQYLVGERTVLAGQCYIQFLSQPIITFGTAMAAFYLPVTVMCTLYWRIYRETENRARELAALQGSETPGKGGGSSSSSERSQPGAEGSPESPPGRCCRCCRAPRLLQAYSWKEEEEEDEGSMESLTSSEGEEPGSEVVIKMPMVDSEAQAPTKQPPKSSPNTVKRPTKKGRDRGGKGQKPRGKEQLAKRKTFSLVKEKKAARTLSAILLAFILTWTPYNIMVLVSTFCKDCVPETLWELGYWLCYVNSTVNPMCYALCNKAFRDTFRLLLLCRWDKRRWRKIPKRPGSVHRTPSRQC", "experiment": "calcium mobilization assay in CHO cells", "type": "cell-based", "experimental": "(§1) CHO cells expressing rM1, rM3 and rM5 were plated at 4 × 10^4 cells per well, whereas rM2 and rM4 were plated at 6 × 10^4 cells per well, in standard growth media (as described previously under “cell culture”) in 96-well plates 24 hours before assay and were incubated overnight at 37 °C in 5% CO2. […] Cells were incubated for 45 minutes (37 °C, 5% CO2) for dye loading. Fluo4-AM dye was removed, cells were washed and replaced with 40 μL of calcium assay buffer. AEME concentration-response curves were determined in single-add experiments. […] All compounds were dissolved in dimethyl sulfoxide (DMSO) and then in calcium assay buffer to obtain a final DMSO concentration of 0.3%. […] These values were fit using GraphPad Prism version 5.0 to determine EC50 values and Schild slope and pA2 in the Schild analyses."}, "[2]": {"biological_target": "T2, Rat M3 mAChR (Rattus norvegicus, UniProt P08483)", "T2 construct": "host or cells: CHO (CHO-K1) cells", "T2 sequence (P08483 whole entry)": "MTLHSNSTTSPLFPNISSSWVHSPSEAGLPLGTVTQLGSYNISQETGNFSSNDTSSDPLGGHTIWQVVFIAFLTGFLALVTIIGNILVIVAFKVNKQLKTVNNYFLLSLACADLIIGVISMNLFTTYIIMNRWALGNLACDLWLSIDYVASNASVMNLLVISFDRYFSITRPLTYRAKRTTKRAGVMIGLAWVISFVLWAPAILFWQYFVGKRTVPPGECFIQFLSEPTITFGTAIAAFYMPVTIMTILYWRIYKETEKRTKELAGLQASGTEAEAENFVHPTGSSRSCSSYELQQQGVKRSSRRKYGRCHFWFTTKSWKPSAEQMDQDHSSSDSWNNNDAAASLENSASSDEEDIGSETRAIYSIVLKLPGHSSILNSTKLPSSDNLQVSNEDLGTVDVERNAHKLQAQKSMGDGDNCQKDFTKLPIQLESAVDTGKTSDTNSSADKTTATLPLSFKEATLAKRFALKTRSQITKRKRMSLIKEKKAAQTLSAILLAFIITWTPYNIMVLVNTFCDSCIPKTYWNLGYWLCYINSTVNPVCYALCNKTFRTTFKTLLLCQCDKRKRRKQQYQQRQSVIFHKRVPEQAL", "experiment": "calcium mobilization assay in CHO cells", "type": "cell-based", "experimental": "as §1"}, "[3]": {"test_system": "rat primary hippocampal cell culture", "experiment": "MTT viability assay, AEME-induced neurotoxicity", "type": "cell-based", "conditions": "10^−3 M AEME, 24 hours, % of control", "experimental": "Neuronal viability was evaluated in the hippocampal cell culture using the 3-(4,5-dimethylthiazol-2-yl)-2,5-diphenyltetrazolium bromide (MTT; Sigma) reduction assay, with some modification. Briefly, after 24 hours of incubation with 10^−3 M AEME in the absence and in the presence of 10 nM pirenzepine hydrochloride (M1 selective antagonist; Sigma), 10 nM p-F-HHSiD (M3 selective antagonist; Sigma) and the specific inhibitor of different isoforms of PLC U73122 (10 nM)[55] (Sigma), all the medium was removed, and 100 μL of MTT solution, containing 5 mg/mL MTT in PBS and neurobasal medium without phenol red (1:9, v/v) were added. After 3 hours of incubation with MTT at 37 °C in a humidified atmosphere of 5% CO2, the MTT solution was removed and 200 μL of dimethyl sulfoxide was added to each well. After 30 minutes of shaking, the absorbance was measured at 570 nm in a multiwell plate reader (BioTek Synergy H1 Hybrid Reader). Potassium chloride (250 mM) was used as a positive control of neuronal death. Muscarinic antagonists, as well as the iPLC, were added 30 minutes prior to incubation with AEME. The antagonist concentration used was near the pKi[25][56]. A control containing 0.002% DMSO was used, since the iPLC stock solution was previously dissolved in this solvent. The assay was performed in quadruplicate, and the results were expressed as a percentage of the control value."}, "[4]": {"biological_target": "T3, Rat M5 mAChR (Rattus norvegicus, UniProt P08911)", "T3 construct": "host or cells: CHO (CHO-K1) cells", "T3 sequence (P08911 1-531)": "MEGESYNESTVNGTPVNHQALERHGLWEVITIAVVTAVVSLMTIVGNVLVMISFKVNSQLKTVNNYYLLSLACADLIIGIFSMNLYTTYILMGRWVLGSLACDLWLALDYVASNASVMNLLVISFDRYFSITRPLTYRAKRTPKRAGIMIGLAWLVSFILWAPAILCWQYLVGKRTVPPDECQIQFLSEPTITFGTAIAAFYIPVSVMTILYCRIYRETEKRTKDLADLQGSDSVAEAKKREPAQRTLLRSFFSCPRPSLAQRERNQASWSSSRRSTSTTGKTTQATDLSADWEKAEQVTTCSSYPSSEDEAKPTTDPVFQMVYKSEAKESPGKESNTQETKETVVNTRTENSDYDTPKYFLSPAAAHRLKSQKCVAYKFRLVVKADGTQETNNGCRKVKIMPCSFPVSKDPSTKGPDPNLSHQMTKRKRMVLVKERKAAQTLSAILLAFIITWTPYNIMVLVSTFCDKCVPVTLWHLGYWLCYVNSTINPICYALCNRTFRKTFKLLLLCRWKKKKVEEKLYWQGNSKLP", "experiment": "calcium mobilization assay in CHO cells, incl. Schild analysis", "type": "cell-based", "experimental": "as §1"}, "[5]": {"test_system": "rat primary hippocampal cell culture", "experiment": "DNA fragmentation (propidium iodide, flow cytometry)", "type": "cell-based", "conditions": "for cells with fragmented DNA: 24 hours, control 28.6%", "experimental": "DNA fragmentation was assessed using propidium iodide following the method described by Lima et al.[47]. Hippocampal cells were incubated with 10^−4 or 10^−3 M AEME for 12 and 24 hours. Briefly, exposed cells were removed from the culture plate and centrifuged (500 g for 5 minutes) and lysed with a fragmentation buffer ([…] propidium iodide, 0.1% sodium citrate, and 0.1% Triton-X) for 2 hours at room temperature in the dark. DNA fragmentation was analyzed in a flow cytometry (FACSCalibur, Becton Dickinson, CA) using the FL2-A channel (λexcitation = 585 nm and λemission = 642 nm) and […] cells were evaluated per experiment."}, "[6]": {"test_system": "caspase-3", "design": "method as in PMID 22523227", "conditions": "hippocampal neurons, 6 hours of exposure; cited from earlier work"}, "[7]": {"test_system": "rat primary hippocampal cell culture", "experiment": "intracellular calcium release in hippocampal cells (Fluo4-AM)", "type": "cell-based", "conditions": "10^−5, 10^−4 and 10^−3 M AEME", "experimental": "Hippocampal cells were removed from the plates and previously incubated with Fluo4-AM dye (Invitrogen) dissolved in Neurobasal medium (Gibco®) for one hour[46]. The cells were centrifuged (300 g for 5 minutes at 20 °C), washed with phosphate buffer solution (PBS) without calcium, and plated in microscopy confocal (Zeiss LSM 510, Meta) microplates pretreated with poli-L-lysine. The fluorescence was measured for 90 seconds in the absence and/or in the presence of 10^−5, 10^−4 and 10^−3 M AEME. After this period, 250 mM KCl was added in order to promote neuronal […] and, thus, verify its viability. All measurements were performed with a PBS free-calcium solution. Digitalized images were analyzed through the software Origin 5."}, "[8]": {"conditions": "rat M5, AEME 10^−6 to 10^−3.5 M vs acetylcholine"}}}
{"compound": "COC(=O)C1=CC[C@@H]2CC[C@H]1N2C", "note": "[AEME, anhydroecgonine methyl ester]", "values": [{"measurement": "mechanism of action", "setting": "[1]; rat M1", "result": "partial agonist-activity"}, {"measurement": "% of the maximum acetylcholine response", "setting": "[1]; rat M1, agonist mode", "result": 38.3, "unit": "%"}, {"measurement": "EC50", "setting": "[1]; rat M1, agonist mode (single-add)", "result": "> 100", "unit": "µM"}, {"measurement": "mechanism of action", "setting": "[2]; rat M3", "result": "partial agonist-activity"}, {"measurement": "% of the maximum acetylcholine response", "setting": "[2]; rat M3, agonist mode", "result": 27.2, "unit": "%"}, {"measurement": "EC50", "setting": "[2]; rat M3, agonist mode (single-add)", "result": "> 100", "unit": "µM"}, {"measurement": "viable cells", "setting": "[3]", "result": 67.2, "unit": "%"}, {"measurement": "mechanism of action", "setting": "[4]; rat M5, 100 μM AEME on ACh curve", "result": "antagonized the effects of ACh"}, {"measurement": "Schild slope", "setting": "[4]; [8]", "result": "0.95 ± 0.07"}, {"measurement": "pA2 (antagonist affinity, Schild analysis)", "setting": "[4]; [8]", "result": "4.87 ± 0.10"}, {"measurement": "calcium increase", "setting": "[4]; rat M5, agonist mode", "result": "no calcium increase"}, {"measurement": "cells with fragmented DNA", "setting": "[5]; 10^−3 M", "result": 44.1, "unit": "%"}, {"measurement": "DNA fragmentation", "setting": "[5]; 10^−4 or 10^−3 M, 12 hours", "result": "same pattern of DNA fragmentation as the control group"}, {"measurement": "cells with fragmented DNA", "setting": "[5]; lower AEME concentration (10^−4 M)", "result": 32.1, "unit": "%"}, {"measurement": "caspase-3 activity", "setting": "[6]", "result": "increased"}, {"measurement": "intracellular calcium release", "setting": "[7]", "result": "concentration-dependent increase"}]}
